# Test: Dissolved amount in water (Test Example 1)
# Type: physicochemical
# Conditions: 5 mg sample in 1 mL water, shaken, supernatant measured by HPLC
# Description: Each of the above-prepared Formulation 1 and the solid dispersions of Formulations 2 to 6 was separately dispersed in water. Sampling from each solution was performed at 15, 30, and 60 minutes after dispersion, and the concentration of ((1S)-1-((((1S)-1-benzyl-2,3-dioxo-3-(cyclopropylamino)propyl)amino) carbonyl)-3-methylbutyl)carbamic acid 5-methoxy-3-oxapentyl ester was measured according to the procedure shown below.
# To 5 mg of each of the above-prepared Formulation 1 and the solid dispersions of Formulations 2 to 6, 1 mL of water was added and the mixture was shaken with a shaker (Labindustries Inc., Labquake Shaker L1237). Shaking was stopped when the predetermined sampling time elapsed, and centrifugation at 13000 rpm was immediately performed at 25° C. for 5 minutes with a centrifugal separator (Kendro Lab Products, Sorvall Biofuge Fresco) to give a supernatant. A sample solution was prepared by mixing 0.5 mL of methanol to 0.5 mL of the supernatant and then measured for concentration of ((1S)-1-((((1S)-1-benzyl-2,3-dioxo-3-(cyclopropylamino)propyl)amino)carbonyl)-3-methylbutyl) carbamic acid 5-methoxy-3-oxapentyl ester by HPLC (Shimadzu, 10A-VP system).
# Detector: ultraviolet absorptiometer (detection wavelength: 252 nm)
# Column: YMC-Pack ODS-A (inside diameter: 4.6 mm, length: 250 mm, particle diameter: 5 μm, YMC)
# Column temperature: constant temperature at around 40° C. […]
smiles,measurement,value
"COCCOCCOC(=O)N[C@@H](CC(C)C)C(=O)N[C@@H](Cc1ccccc1)C(=O)C(=O)NC1CC1 [((1S)-1-((((1S)-1-benzyl-2,3-dioxo-3-(cyclopropylamino)propyl)amino)carbonyl)-3-methylbutyl)carbamic acid 5-methoxy-3-oxapentyl ester]",dissolved amount in water,0.45 mg/mL
